Measurements as given in ChEMBL document CHEMBL2007661, “Compounds: GSK PKIS; Assays: UNC Frye lab” (2012).
Where “and” joins values, the source holds several entries; their conditions need not be identical. Identical values can stand only once.

Legend:
[1] = target: T1, Serine/threonine-protein kinase TBK1 (Homo sapiens) (UniProt Q9UHD2); settings: at 1 µM
T1 sequence (whole entry): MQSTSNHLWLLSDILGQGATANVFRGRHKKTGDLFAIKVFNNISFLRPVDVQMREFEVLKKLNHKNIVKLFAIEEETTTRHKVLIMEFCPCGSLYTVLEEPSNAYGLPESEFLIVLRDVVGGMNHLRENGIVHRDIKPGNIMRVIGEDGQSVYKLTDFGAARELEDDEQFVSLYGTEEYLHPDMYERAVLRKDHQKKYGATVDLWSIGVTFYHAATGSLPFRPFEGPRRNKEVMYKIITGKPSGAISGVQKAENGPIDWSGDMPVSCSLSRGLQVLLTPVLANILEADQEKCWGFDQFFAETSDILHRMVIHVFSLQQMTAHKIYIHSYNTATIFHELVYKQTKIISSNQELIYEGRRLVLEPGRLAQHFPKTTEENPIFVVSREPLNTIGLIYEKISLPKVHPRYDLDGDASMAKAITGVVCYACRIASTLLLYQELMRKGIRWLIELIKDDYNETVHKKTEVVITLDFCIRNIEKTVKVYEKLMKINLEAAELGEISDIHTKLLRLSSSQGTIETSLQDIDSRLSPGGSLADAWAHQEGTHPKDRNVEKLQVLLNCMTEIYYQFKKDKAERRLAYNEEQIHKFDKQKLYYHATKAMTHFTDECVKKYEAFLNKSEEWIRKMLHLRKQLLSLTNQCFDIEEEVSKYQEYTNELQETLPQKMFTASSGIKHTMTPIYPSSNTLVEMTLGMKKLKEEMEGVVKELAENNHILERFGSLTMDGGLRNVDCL

[2] = target: T2, Inhibitor of nuclear factor kappa-B kinase subunit epsilon (Homo sapiens) (UniProt Q14164); settings: at 1 µM
T2 sequence (whole entry): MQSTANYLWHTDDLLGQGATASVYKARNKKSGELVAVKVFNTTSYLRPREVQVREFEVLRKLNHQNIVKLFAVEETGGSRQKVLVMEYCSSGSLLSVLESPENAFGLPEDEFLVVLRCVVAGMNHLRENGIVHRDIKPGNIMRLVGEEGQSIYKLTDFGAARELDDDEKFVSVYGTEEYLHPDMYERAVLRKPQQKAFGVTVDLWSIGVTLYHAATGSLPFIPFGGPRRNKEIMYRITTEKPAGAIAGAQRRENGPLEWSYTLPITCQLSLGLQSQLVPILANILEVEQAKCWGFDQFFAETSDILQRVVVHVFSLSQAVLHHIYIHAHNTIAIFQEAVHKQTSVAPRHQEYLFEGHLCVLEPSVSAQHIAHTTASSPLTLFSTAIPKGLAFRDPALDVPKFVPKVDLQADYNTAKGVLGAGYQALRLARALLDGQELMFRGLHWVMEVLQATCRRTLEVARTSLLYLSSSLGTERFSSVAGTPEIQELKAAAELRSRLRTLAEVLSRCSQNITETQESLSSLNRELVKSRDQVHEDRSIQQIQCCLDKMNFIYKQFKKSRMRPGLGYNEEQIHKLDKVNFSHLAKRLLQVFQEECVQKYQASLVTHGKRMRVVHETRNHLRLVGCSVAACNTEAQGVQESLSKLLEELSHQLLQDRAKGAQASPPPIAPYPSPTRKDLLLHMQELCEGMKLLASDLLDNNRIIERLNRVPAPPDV

[3] = target: T3, Tyrosine-protein kinase Mer (Homo sapiens) (UniProt Q12866); settings: at 10 µM
T3 sequence (whole entry): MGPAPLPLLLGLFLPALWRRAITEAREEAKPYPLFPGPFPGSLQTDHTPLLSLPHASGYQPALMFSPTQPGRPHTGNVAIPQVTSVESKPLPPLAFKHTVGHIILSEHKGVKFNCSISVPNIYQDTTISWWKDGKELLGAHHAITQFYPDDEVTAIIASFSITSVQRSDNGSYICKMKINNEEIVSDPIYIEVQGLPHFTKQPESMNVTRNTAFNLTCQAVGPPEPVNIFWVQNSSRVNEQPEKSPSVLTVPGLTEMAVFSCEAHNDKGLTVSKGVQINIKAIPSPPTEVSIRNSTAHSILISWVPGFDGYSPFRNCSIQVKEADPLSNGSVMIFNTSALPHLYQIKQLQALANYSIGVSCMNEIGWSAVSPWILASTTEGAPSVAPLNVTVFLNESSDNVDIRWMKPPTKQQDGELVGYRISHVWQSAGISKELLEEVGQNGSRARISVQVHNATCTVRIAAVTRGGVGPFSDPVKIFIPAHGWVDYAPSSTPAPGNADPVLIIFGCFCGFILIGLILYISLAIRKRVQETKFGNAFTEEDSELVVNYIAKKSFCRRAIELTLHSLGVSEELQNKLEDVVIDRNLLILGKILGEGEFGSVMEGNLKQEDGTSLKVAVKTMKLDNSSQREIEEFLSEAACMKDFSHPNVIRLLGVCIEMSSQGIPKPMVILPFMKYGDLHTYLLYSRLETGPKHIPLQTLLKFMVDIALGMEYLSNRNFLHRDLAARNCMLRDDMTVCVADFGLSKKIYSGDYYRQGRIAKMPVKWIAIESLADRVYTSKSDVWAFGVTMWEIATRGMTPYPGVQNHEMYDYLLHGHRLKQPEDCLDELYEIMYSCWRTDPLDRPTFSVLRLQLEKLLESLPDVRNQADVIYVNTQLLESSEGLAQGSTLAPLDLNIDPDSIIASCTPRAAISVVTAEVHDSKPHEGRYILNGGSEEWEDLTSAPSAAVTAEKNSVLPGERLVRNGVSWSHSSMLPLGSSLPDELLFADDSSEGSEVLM

Row | inhibition [1] | inhibition [2] | inhibition [3] | SMILES
1 | 3% [middle of 4 runs] | 2% (2×) and 1% | 15% and 7% | CN1CCC(C(=O)Nc2n[nH]c3nc(-c4ccc(O)cc4)c(Br)cc23)CC1
2 | -2% and -3% | -1% and -2% | -5% | COc1ccc2cc(-c3c(-c4ccncc4)nc(-c4ccc([S+](C)[O-])cc4C)n3C)ccc2c1 (stereo not given)
3 | 2% and 4% | 2% and -1% | 86% | O=C(Nc1n[nH]c2cc(-c3ccc(F)cc3)ccc12)C1CC1
4 | 29% and 33% | 23% and 21% | -3% | c1cnn2ncc(-c3ccnc(Nc4ccc5c(c4)OCCO5)n3)c2c1
5 | 76% and 77% | 55% | -1% | NS(=O)(=O)c1ccc(N/N=C2\C(=O)Nc3ccc4ncccc4c32)cc1
6 | 5% and 4% | 3% | 3% | NC(=O)c1ccc(Oc2nccc(-c3c(-c4ccc(F)cc4)ncn3C3CCNCC3)n2)cc1
7 | -2% and -4% | -2% and -1% | 1% | FC(F)(F)CNc1nccc(-c2cnn3ncccc23)n1
8 | 1% and 2% | -1% and 2% | -9% | Cc1c2ccc(N(C)c3ccnc(Nc4cccc(S(N)(=O)=O)c4)n3)cc2nn1C
9 | 19% and 17% | 13% | -4% | CN(c1ccc(NC(=O)Nc2c(Cl)cccc2Cl)cc1)c1ccnc(Nc2cccc(CS(C)(=O)=O)c2)n1
10 | 1% | 8% and 7% | -2% | CCS(=O)(=O)c1ccc(OC)c(Nc2nccc(N(C)c3ccc4c(C)n[nH]c4c3)n2)c1
11 | -3% and -2% | -4% | -1% | COc1cc2ncn(-c3cc(OCc4ccccc4C(F)(F)F)c(C(C)=O)s3)c2cc1OC
12 | -3% and -6% | 7% and 8% | 2% | Nc1ncnc2occ(-c3ccc(NC(=O)Nc4cc(C(F)(F)F)cc(C(F)(F)F)c4)cc3)c12
13 | 55% and 59% | 96% | 3% | CCn1c(-c2nonc2N)nc2c(C#CC(C)(C)O)ncc(OCC3CCNCC3)c21
14 | -2% and -4% | 1% | 1% | CN(C)CCNC(=O)Nc1ccc(N(C)c2ccnc(Nc3ccc(CS(C)(=O)=O)cc3)n2)cc1
15 | 1% and 4% | 0% and 1% | 38% | Cc1cccc(Nc2ncc(-c3ccccc3)o2)c1
16 | 0% and 2% | 4% | -7% | CN1CCC(n2cnc(-c3ccc(F)cc3)c2-c2ccnc(N)n2)CC1
17 | 17% and 18% | 7% and 10% | -6% | Cn1cc(C=C2C(=O)Nc3cccnc32)c2ccccc21
18 | 74% and 76% | 35% and 33% | 85% | COc1cccc(-c2c[nH]c3c(N/N=C/c4ccncc4)ncnc23)c1
19 | -2% and -3% | -1% and -2% | 59% | CCn1c(-c2nonc2N)nc2ccccc21
20 | 12% | 0% and 3% | 10% | COc1cc2ncn(-c3cc(OCc4ccccc4C(F)(F)F)c(C(N)=O)s3)c2cc1OC

Row | inhibition [1] | inhibition [2] | inhibition [3] | SMILES
21 | 1% and -2% | 0% and 2% | 6% | Cc1ccc(O)cc1Nc1ccnc2ccc(S(C)(=O)=O)cc12
22 | 2% and 1% | 1% | -2% | Cc1ccc(O)cc1Nc1ccnc2cc(-c3ccccn3)ccc12
23 | 5% and 2% | 2% | 5% | COc1cc2ncnc(Nc3ccc4c(cnn4Cc4ccccc4)c3)c2cc1OC
24 | 3% and 0% | -1% | 1% | CC(=O)Nc1cccc(C#Cc2cncnc2Nc2ccc(OCc3cccc(F)c3)c(Cl)c2)n1
25 | 40% and 43% | 37% and 39% | 1% | O=C1Nc2ccc(-c3cccnc3)cc2C1=Cc1cc(Br)c(O)c(Br)c1
26 | 14% and 16% | -1% and 0% | 0% | NCc1ccc(-c2nc(-c3ccc(Cl)c(O)c3)c(-c3ccncc3)[nH]2)cc1
27 | 30% and 27% | 22% and 20% | -2% | O=C1Nc2ccccc2/C1=C/Nc1ccc2[nH]c(=O)[nH]c2c1
28 | 1% and 0% | 1% | 0% | COc1ccc(-c2nn3ncccc3c2-c2ccnc(Nc3ccc4c(c3)OCCO4)n2)cc1
29 | 5% and 3% | 9% and 11% | 86% | Cc1cc(-c2ccco2)cc(C)c1/C=C/c1cncc(-c2nn[nH]n2)c1
30 | -2% and -5% | -3% and 0% | 57% | OCCCNc1nccc(-c2c(-c3ccc(F)cc3)nn3cc(C(F)(F)F)ccc23)n1
31 | 11% and 12% | 1% and 4% | 66% | CS(=O)(=O)CCN(CC#N)Cc1ccc(-c2ccc3ncnc(Nc4ccc(OCc5cccc(F)c5)c(Cl)c4)c3c2)o1
32 | 0% and 3% | 0% and -1% | -9% | COc1cc(Nc2ncc(-c3ccccc3)o2)cc(OC)c1
33 | 1% and -2% | -2% and 0% | -1% | CCC(=O)Nc1ccc(C)c(-c2ccc(C(=O)NCC3CC3)cc2)c1
34 | -3% and -1% | -3% and -1% | 8% | CCc1cccc(NC(=O)Nc2ccc(Oc3ccc4nc(NC(=O)OC)[nH]c4c3)cc2)c1
35 | 46% and 45% | 33% | 68% | CC(C)=Cc1cccc2c1/C(=N/Nc1ccc(S(N)(=O)=O)cc1)C(=O)N2
36 | 3% and 6% | 3% and 2% | 6% | NC(=O)c1sc(-n2cnc3cc(C(F)(F)F)ccc32)cc1OCc1ccccc1Br
37 | -1% and -3% | 0% and 1% | 0% | COc1cc(N2CCN(C(C)C)CC2)ccc1Nc1nc(Nc2ccc(F)cc2C(=O)NC[C@@H](O)CO)c2cc[nH]c2n1
38 | 18% and 9% | 2% and 4% | 13% | Nc1nccc(C#Cc2cncnc2Nc2ccc(OCc3cccc(F)c3)c(Cl)c2)n1
39 | -4% and -2% | -2% and -3% | 2% | NS(=O)(=O)c1ccc(Nc2cc(-c3cccc(O)c3)n[nH]2)cc1
40 | 2% and 0% | -1% | -4% | O=C(Nc1n[nH]c2cc(-c3ccccc3)ccc12)C1CC1
